Test results published in patent publication US11278526B2, “Compounds and methods for treating lupus” (RECEPTOS LLC, priority 2016, dated 2022).

Molecular target: T1, S1P1R (Mus musculus, UniProt O08530)
T1 construct: from tissue; host or cells: spleen
Experiment: S1P1R cell surface expression on splenic CD4+ T cells by flow cytometry
Assay type: in vivo
Conditions: NZBWF1 mice, splenocytes at termination; 0.3, 1.0, 3.0 mg/kg PO QD
Text: S1P1R is expressed on T and B lymphocytes and is the target for modulation by compound 5. Following agonism of the receptor by compound 5, the receptor is internalized and degraded. To determine whether internalization is occurring in T cells following compound dosing in vivo, both naïve and activated CD4+ T cells were examined for cell surface expression of S1P1R. At termination, spleens were harvested and splenocytes isolated and analyzed for immune cell populations by antibody staining and flow cytometry. S1P1R expression was measured on both activated CD4+ T cells (CD3+CD4+CD44+CD62L−) and naïve T cells (CD3+CD4+CD44−CD62L+).

T1 sequence (O08530 whole entry): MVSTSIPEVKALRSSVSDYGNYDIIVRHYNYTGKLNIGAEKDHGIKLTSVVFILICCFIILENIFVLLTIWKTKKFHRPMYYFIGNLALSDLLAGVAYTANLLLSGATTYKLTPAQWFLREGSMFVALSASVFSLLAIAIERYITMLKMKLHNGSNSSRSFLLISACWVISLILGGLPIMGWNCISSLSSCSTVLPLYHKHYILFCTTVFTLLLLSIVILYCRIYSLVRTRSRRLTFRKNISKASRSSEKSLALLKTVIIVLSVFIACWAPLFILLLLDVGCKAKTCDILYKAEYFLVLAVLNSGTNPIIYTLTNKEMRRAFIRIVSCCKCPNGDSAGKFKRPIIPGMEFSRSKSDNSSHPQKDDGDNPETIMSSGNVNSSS

In the case of `CC(C)Oc1ccc(-c2nc(-c3cccc4c3CC[C@@H]4NCCO)no2)cc1C#N` [compound 5, (S)-5-(3-(1-(2-hydroxyethylamino)-2,3-dihydro-1H-inden-4-yl)-1,2,4-oxadiazol-5-yl)-2-isopropoxy benzonitrile], the “S1P1R expression on activated CD4+ T cells (CD3+CD4+CD44+CD62L−)” value is reported as “reduced in a dose-dependent manner” and the “S1P1R expression on naïve CD4+ T cells (CD3+CD4+CD44−CD62L+)” value is reported as “reduced in a dose-dependent manner”.
